# Data from patent US20230074545A1, “TREATMENT OF CANCER WITH CDK12/13 INHIBITORS” (Kinnate Biopharma Inc., priority 2019, published 2023).
# Key:
# Assay in all cases: Radiometric kinase panel
# Assay type in all cases: biochemical
# AuroraB = target: T1, AuroraB (Homo sapiens, UniProt Q96GD4)
# T1 construct: purchased ProQinase GmbH (Reaction Biology); host or cells: Sf9 insect cells or E. coli (not specified per kinase)
# How it was run: (§1)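 Activity was measured radiometrically from [gamma-33P]-ATP incorporation into substrate. The kinases were recombinant human GST- or His-tagged proteins, full-length or active fragments, expressed in Sf9 or E. coli. Compound in 10% DMSO was added before the enzyme/substrate mix, which started the reaction.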
# PIM2 = target: T2, PIM2 (Homo sapiens, UniProt Q9P1W9)
# T2 construct: either as full-length or enzymatically active fragments; purchased ProQinase GmbH (Reaction Biology)
# How it was run: as §1
# PKCepsilon = target: T3, PKCepsilon (Homo sapiens, UniProt Q02156)
# T3 construct: either as full-length or enzymatically active fragments; purchased ProQinase GmbH (Reaction Biology); host or cells: Sf9 insect cells or E. coli
# How it was run: as §1
# LIMK2 = target: T4, LIMK2 (Homo sapiens, UniProt P53671)
# T4 construct: either as full-length or enzymatically active fragments; purchased ProQinase GmbH (Reaction Biology)
# How it was run: as §1
# ACVR2A = target: T5, ACVR2A (Homo sapiens, UniProt P27037)
# T5 construct: either as full-length or enzymatically active fragments; purchased ProQinase GmbH (Reaction Biology)
# How it was run: as §1
# PBK = target: T6, PBK (Homo sapiens, UniProt Q96KB5)
# T6 construct: purchased ProQinase GmbH (Reaction Biology); host or cells: Sf9 insect cells or E. coli (not specified per kinase)
# How it was run: as §1
# CDK20/CycH = target: T7, CDK20/CycH (Homo sapiens, UniProt Q8IZL9)
# T7 construct: purchased ProQinase GmbH (Reaction Biology)
# How it was run: as §1
# IRAK1 = target: T8, IRAK1 (Homo sapiens, UniProt P51617)
# T8 construct: either as full-length or enzymatically active fragments; purchased ProQinase GmbH (Reaction Biology)
# How it was run: as §1
# ERBB2 = target: T9, ERBB2 (Homo sapiens, UniProt P04626)
# T9 construct: either as full-length or enzymatically active fragments; purchased ProQinase GmbH (Reaction Biology)
# How it was run: as §1
# PKCeta = target: T10, PKCeta (Homo sapiens, UniProt P24723)
# T10 construct: either as full-length or enzymatically active fragments; purchased ProQinase GmbH (Reaction Biology); host or cells: Sf9 insect cells or E. coli
# How it was run: as §1
# ROS = target: T11, ROS (Homo sapiens, UniProt P08922)
# T11 construct: either as full-length or enzymatically active fragments; purchased ProQinase GmbH (Reaction Biology)
# How it was run: as §1
# COT = target: T12, COT (Homo sapiens, UniProt P41279)
# T12 construct: either as full-length or enzymatically active fragments; purchased ProQinase GmbH (Reaction Biology)
# How it was run: as §1
# EPHA6 = target: T13, EPHA6 (Homo sapiens, UniProt Q9UF33)
# T13 construct: either as full-length or enzymatically active fragments; purchased ProQinase GmbH (Reaction Biology)
# How it was run: as §1
# GRK4 = target: T14, GRK4 (Homo sapiens, UniProt P32298)
# T14 construct: either as full-length or enzymatically active fragments; purchased ProQinase GmbH (Reaction Biology)
# How it was run: as §1
# PKA = target: T15, PKA (Homo sapiens, UniProt P17612)
# T15 construct: either as full-length or enzymatically active fragments; purchased ProQinase GmbH (Reaction Biology); host or cells: Sf9 insect cells or E. coli
# How it was run: as §1
# CAMK2D = target: T16, CAMK2D (Homo sapiens, UniProt Q13557)
# T16 construct: purchased ProQinase GmbH (Reaction Biology)
# How it was run: as §1
# ZAP70 = target: T17, ZAP70 (Homo sapiens, UniProt P43403)
# T17 construct: either as full-length or enzymatically active fragments; purchased ProQinase GmbH (Reaction Biology)
# How it was run: as §1
# PKCgamma = target: T18, PKCgamma (Homo sapiens, UniProt P05129)
# T18 construct: either as full-length or enzymatically active fragments; purchased ProQinase GmbH (Reaction Biology)
# How it was run: as §1
# WNK1 = target: T19, WNK1 (Homo sapiens, UniProt Q9H4A3)
# T19 construct: either as full-length or enzymatically active fragments; purchased ProQinase GmbH (Reaction Biology)
# How it was run: as §1
# CAMK2A = target: T20, CAMK2A (Homo sapiens, UniProt Q9UQM7)
# T20 construct: either as full-length or enzymatically active fragments; purchased ProQinase GmbH (Reaction Biology)
# How it was run: as §1
# RPS6KA1 = target: T21, RPS6KA1 (Homo sapiens, UniProt Q15418)
# T21 construct: purchased ProQinase GmbH (Reaction Biology)
# How it was run: as §1
# AuroraC = target: T22, AuroraC (Homo sapiens, UniProt Q9UQB9)
# T22 construct: either as full-length or enzymatically active fragments; purchased ProQinase GmbH (Reaction Biology)
# How it was run: as §1
# AXL = target: T23, AXL (Homo sapiens, UniProt P30530)
# T23 construct: either as full-length or enzymatically active fragments; purchased ProQinase GmbH (Reaction Biology)
# How it was run: as §1
# KIT = target: T24, KIT (Homo sapiens, UniProt P10721)
# T24 construct: either as full-length or enzymatically active fragments; purchased ProQinase GmbH (Reaction Biology)
# How it was run: as §1
# PHKG2 = target: T25, PHKG2 (Homo sapiens, UniProt P15735)
# T25 construct: either as full-length or enzymatically active fragments; purchased ProQinase GmbH (Reaction Biology)
# How it was run: as §1
# MELK = target: T26, MELK (Homo sapiens, UniProt Q14680)
# T26 construct: purchased ProQinase GmbH (Reaction Biology); host or cells: Sf9 insect cells or E. coli (not specified per kinase)
# How it was run: as §1
# CLK1 = target: T27, CLK1 (Homo sapiens, UniProt P49759)
# T27 construct: either as full-length or enzymatically active fragments; purchased ProQinase GmbH (Reaction Biology)
# How it was run: as §1
# CDK7/CycH/MAT1 = target: T28, CDK7/CycH/MAT1 (Homo sapiens, UniProt P50613)
# T28 construct: either as full-length or enzymatically active fragments; purchased ProQinase GmbH (Reaction Biology)
# How it was run: as §1
# ABL2 = target: T29, ABL2 (Homo sapiens, UniProt P42684)
# T29 construct: purchased ProQinase GmbH (Reaction Biology)
# How it was run: as §1
# NIK = target: T30, NIK (Homo sapiens, UniProt Q99558)
# T30 construct: purchased ProQinase GmbH (Reaction Biology)
# How it was run: as §1
# PKCtheta = target: T31, PKCtheta (Homo sapiens, UniProt Q04759)
# T31 construct: purchased ProQinase GmbH (Reaction Biology); host or cells: Sf9 insect cells or E. coli (not specified per kinase)
# How it was run: as §1
# VEGFR3 = target: T32, VEGFR3 (Homo sapiens, UniProt P35916)
# T32 construct: either as full-length or enzymatically active fragments; purchased ProQinase GmbH (Reaction Biology)
# How it was run: as §1
# T16 sequence (Q13557 whole entry): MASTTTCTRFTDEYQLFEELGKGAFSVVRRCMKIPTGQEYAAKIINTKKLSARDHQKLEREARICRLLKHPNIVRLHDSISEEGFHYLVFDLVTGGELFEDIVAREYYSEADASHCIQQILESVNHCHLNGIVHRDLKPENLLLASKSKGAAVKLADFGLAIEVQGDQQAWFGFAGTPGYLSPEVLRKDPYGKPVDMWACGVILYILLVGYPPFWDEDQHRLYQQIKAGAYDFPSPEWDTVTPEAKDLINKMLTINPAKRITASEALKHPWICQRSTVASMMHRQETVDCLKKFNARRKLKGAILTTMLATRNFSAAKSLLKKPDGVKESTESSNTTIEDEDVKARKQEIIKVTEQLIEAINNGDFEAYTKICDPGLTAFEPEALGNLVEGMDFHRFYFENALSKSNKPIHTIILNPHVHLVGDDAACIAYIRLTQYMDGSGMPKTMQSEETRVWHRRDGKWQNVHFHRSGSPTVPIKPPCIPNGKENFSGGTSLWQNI
# T9 sequence (P04626 23-1255): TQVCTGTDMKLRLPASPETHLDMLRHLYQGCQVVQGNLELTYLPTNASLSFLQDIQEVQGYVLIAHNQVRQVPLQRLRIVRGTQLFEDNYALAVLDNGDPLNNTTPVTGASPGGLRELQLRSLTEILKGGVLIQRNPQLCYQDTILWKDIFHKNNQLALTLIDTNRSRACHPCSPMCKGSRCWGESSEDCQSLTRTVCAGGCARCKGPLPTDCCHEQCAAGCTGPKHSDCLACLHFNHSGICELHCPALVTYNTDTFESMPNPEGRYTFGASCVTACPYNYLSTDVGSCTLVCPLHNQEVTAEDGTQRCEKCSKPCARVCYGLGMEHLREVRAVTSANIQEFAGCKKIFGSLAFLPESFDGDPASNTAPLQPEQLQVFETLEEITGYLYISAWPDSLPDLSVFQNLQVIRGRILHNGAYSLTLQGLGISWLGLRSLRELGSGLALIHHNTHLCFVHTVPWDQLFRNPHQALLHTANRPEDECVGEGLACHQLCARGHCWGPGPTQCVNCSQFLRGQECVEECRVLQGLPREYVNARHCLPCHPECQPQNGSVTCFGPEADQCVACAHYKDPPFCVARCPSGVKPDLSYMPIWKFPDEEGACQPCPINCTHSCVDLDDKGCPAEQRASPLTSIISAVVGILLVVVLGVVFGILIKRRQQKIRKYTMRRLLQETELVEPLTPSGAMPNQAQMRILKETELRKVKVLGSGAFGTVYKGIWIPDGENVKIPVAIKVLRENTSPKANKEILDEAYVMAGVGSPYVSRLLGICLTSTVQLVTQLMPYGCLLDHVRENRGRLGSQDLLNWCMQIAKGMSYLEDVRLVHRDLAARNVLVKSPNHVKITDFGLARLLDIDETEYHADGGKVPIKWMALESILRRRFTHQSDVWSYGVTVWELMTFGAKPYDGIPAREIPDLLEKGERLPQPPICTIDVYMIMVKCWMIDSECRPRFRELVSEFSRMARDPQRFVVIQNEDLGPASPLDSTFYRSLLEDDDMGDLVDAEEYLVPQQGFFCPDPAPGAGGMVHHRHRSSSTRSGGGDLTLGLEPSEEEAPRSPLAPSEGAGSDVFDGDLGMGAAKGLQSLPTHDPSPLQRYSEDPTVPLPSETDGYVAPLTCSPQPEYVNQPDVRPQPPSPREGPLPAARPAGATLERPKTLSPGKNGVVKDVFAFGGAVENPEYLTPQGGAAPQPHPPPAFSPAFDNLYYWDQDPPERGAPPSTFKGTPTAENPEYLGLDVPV
# T5 sequence (P27037 20-513): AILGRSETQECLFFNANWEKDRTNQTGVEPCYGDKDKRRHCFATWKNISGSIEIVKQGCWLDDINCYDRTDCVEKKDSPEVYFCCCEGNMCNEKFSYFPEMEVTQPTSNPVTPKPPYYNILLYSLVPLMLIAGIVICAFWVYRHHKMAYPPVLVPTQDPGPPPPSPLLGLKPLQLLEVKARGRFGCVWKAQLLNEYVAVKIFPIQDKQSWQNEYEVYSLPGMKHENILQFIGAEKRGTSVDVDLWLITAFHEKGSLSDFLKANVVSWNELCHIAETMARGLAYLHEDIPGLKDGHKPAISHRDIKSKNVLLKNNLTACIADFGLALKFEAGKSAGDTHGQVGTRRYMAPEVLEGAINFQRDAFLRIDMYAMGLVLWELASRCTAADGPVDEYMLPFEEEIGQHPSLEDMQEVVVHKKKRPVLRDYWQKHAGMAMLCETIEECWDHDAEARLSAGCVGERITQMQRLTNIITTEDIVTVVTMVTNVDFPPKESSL
# T27 sequence (P49759 whole entry, the tested form may be a part): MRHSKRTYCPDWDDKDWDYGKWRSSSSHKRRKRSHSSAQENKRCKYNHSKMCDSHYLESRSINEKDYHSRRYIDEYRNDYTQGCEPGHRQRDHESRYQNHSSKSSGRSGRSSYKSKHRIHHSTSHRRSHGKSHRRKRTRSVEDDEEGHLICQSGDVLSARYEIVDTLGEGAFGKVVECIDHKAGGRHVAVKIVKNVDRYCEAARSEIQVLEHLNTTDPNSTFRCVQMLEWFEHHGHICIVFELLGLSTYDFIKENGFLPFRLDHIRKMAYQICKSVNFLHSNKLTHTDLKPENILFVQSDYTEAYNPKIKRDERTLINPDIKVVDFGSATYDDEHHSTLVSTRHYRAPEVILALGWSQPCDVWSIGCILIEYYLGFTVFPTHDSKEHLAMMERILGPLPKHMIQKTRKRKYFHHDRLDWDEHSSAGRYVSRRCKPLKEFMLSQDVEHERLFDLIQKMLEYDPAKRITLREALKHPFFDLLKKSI
# T7 sequence (Q8IZL9 whole entry): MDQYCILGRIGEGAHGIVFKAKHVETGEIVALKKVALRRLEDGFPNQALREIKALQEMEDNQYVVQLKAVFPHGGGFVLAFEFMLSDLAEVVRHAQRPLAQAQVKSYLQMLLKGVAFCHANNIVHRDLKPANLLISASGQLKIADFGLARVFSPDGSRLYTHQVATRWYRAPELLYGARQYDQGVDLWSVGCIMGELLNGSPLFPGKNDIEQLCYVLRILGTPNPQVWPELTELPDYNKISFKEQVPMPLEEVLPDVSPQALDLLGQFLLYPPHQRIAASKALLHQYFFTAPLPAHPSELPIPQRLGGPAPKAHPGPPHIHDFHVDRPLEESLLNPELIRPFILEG
# T7 sequence (P51946 whole entry partner): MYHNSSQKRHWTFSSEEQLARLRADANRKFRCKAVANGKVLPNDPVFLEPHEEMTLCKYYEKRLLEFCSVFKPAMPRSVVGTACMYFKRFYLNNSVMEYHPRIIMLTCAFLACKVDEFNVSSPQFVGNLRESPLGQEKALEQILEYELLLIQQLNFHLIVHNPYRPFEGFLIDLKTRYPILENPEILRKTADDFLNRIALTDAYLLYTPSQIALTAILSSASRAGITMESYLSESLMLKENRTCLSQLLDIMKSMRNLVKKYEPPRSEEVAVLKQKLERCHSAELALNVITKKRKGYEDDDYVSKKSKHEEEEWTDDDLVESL
# T10 sequence (P24723 whole entry, the tested form may be a part): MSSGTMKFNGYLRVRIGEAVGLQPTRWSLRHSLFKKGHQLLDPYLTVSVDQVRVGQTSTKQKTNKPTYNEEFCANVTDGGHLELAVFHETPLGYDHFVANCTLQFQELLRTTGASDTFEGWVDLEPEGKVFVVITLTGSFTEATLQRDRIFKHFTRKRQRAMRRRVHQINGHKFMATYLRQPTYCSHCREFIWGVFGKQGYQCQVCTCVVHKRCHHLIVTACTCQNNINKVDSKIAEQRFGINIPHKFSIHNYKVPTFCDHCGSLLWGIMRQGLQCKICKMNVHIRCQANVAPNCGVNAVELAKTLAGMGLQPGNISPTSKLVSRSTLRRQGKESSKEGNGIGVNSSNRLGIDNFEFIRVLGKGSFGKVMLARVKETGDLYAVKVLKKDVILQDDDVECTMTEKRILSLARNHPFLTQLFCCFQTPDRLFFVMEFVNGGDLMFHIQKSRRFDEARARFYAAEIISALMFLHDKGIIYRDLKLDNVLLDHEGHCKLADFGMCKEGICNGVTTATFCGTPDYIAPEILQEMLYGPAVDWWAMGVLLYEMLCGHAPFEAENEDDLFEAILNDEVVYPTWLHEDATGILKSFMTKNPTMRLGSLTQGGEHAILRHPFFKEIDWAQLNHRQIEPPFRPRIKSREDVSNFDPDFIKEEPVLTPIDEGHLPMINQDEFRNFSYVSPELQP
# T4 sequence (P53671 whole entry, the tested form may be a part): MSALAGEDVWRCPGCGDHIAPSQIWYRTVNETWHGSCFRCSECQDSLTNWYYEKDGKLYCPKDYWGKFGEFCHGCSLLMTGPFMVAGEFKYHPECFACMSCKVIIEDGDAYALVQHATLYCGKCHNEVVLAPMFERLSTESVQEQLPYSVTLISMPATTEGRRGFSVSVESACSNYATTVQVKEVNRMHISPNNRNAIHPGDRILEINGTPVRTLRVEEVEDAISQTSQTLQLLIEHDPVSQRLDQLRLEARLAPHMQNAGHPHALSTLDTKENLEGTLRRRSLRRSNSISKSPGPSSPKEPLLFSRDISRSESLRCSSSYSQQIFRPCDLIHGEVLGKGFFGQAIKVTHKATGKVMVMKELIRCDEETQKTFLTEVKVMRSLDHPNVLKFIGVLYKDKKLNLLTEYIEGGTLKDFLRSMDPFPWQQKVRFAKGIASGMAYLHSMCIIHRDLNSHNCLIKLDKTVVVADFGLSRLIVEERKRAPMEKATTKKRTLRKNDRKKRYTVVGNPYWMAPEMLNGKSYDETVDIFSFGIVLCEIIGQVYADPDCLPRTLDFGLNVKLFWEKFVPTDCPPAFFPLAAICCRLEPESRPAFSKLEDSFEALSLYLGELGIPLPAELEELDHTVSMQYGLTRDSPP
# T6 sequence (Q96KB5 whole entry): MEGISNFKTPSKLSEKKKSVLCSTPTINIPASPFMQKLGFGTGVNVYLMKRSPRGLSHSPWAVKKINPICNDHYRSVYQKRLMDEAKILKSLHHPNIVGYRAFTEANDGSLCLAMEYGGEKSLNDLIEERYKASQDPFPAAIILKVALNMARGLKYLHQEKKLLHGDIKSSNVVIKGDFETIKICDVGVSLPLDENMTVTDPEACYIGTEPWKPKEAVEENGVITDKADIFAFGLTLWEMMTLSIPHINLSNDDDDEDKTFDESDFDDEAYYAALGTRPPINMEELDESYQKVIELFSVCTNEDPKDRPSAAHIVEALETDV
smiles,measurement,setting,value
"C=CC(=O)Nc1ccc(C(=O)N2CC[C@@H](Nc3ncc(C#N)cn3)C2)cc1 [Compound 4, (R)-N-(4-(3-((5-cyanopyrimidin-2-yl)amino)pyrrolidine-1-carbonyl)phenyl)acrylamide]",inhibition at 1 µM,AuroraB,1%
same,inhibition at 1 µM,PIM2,3%
same,inhibition at 1 µM,PKCepsilon,15%
same,inhibition at 1 µM,LIMK2,-3%
same,inhibition at 1 µM,ACVR2A,7%
same,inhibition at 1 µM,PBK,0%
same,inhibition at 1 µM,CDK20/CycH,-2%
same,inhibition at 1 µM,IRAK1,2%
same,inhibition at 1 µM,ERBB2,5%
same,inhibition at 1 µM,PKCeta,-14%
same,inhibition at 1 µM,ROS,2%
same,inhibition at 1 µM,COT,6%
same,inhibition at 1 µM,EPHA6,5%
same,inhibition at 1 µM,GRK4,-13%
same,inhibition at 1 µM,PKA,13%
same,inhibition at 1 µM,CAMK2D,0%
same,inhibition at 1 µM,ZAP70,-6%
same,inhibition at 1 µM,PKCgamma,-9%
same,inhibition at 1 µM,WNK1,17%
same,inhibition at 1 µM,CAMK2A,-9%
same,inhibition at 1 µM,RPS6KA1,-1%
same,inhibition at 1 µM,AuroraC,16%
same,inhibition at 1 µM,AXL,3%
same,inhibition at 1 µM,KIT,-4%
same,inhibition at 1 µM,PHKG2,2%
same,inhibition at 1 µM,MELK,1%
same,inhibition at 1 µM,CLK1,-3%
same,inhibition at 1 µM,CDK7/CycH/MAT1,33%
same,inhibition at 1 µM,ABL2,-1%
same,inhibition at 1 µM,NIK,-2%
same,inhibition at 1 µM,PKCtheta,1%
same,inhibition at 1 µM,VEGFR3,-5%
